From patent publication US20250320213A1, “Nitrogen-Containing Heterocyclic Compounds” (Pfizer Inc., priority 2024, published 2025) come the findings set out here.

One experiment addresses T1, STAT6 (Homo sapiens, UniProt P42226).
T1 construct: stably transfected HaCaT keratinocyte cell line, which expresses NanoLuc luciferase reporter gene under the transcriptional control of the STAT6 responsive promoter; endogenous in cells; host or cells: HaCaT keratinocyte reporter cell line (stably transfected with a NanoLuc reporter)
T1 sequence (P42226 1-847): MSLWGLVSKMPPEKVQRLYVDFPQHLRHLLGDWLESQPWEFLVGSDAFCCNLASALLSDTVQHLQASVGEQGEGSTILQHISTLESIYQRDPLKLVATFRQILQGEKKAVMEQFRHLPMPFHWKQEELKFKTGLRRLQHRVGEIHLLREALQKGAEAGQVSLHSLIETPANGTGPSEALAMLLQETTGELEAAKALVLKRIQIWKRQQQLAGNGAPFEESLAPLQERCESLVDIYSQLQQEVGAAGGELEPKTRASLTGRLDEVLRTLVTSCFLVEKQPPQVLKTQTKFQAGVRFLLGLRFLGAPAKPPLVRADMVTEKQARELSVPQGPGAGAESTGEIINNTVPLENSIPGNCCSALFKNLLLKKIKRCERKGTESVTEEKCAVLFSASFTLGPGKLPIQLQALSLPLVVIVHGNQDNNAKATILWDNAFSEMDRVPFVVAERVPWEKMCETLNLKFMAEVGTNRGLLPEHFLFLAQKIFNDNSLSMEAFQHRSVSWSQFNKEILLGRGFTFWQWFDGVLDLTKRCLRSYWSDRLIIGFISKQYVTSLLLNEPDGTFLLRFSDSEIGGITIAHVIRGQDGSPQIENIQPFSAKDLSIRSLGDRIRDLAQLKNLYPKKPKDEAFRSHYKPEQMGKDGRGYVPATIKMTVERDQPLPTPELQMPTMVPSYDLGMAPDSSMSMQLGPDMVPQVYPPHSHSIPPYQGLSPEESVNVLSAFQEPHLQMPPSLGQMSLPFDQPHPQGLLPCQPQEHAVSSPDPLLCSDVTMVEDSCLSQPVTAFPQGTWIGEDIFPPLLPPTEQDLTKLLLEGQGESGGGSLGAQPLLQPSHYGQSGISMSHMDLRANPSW
As to the kind of experiment: STAT6 Reporter Luciferase Assay (IL-13 stimulated HaCaT keratinocyte NanoLuc reporter cells). The format is cell-based. Conditions: IL-13 stimulated HaCaT STAT6 NanoLuc reporter cells; read-out: Reporter EC50. In a few lines:
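Stably transfected HaCaT cells carrying NanoLuc under the STAT6-responsive IL-13Ra2 promoter were pre-treated with compound (11-point, 4-fold series, duplicate) for 2 h at 37 °C, then stimulated with 0.12 nM IL-13 for 4 h. Nano-Glo luminescence was read after 15 min.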

In experiment [1] the test system is CCL17 secretion in peripheral human whole blood. In words: Human Whole Blood (HWB) CCL17 TR-FRET Assay (IL-13 stimulated CCL17 secretion). The format is cell-based. The following applies: human whole blood. A digest of the protocol: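 Measured here: CCL17 in serum by TR-FRET (665/615 nm) after overnight (16 h) room-temperature detection. The blood, heparinized and compound-treated for 2 h, received IL-13 at 10 ng/mL final and was cultured 48 h at 37 °C.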
For orientation: In TR-FRET formats the signal depends on donor and acceptor labels being close together.

[2] abbreviates: Homo sapiens, 48 h, IL-13 10 ng/mL.

What is called EC50 is the concentration giving half of the maximal effect. Broadly, the IC50 is the concentration that inhibits the measured activity by half.

Turning to `Cc1cccc(-c2ccc(CNC(=O)c3nn(C(C)C)c4c3CN(c3ccc(C(=O)N(C)C)cc3)C[C@@H]4C)cc2)n1` [Example 726, (S)-5-(4-(dimethylcarbamoyl)phenyl)-1-isopropyl-7-methyl-N-(4-(6-methylpyridin-2-yl)benzyl)-4,5,6,7-tetrahydro-1H-pyrazolo[4,3-c]pyridine-3-carboxamide], the EC50 at STAT6 came to 123 nM. In addition, 5680 nM corresponded to half-maximal inhibition in experiment [1] (setting [2]) (IC50).

In the case of `Cc1ccc(-c2ccc(CNC(=O)c3nn(C(C)C)c4c3CN(c3ccc(C(=O)N(C)C)cc3)C[C@@H]4C)cc2)nn1` [Example 727, (S)-5-(4-(dimethylcarbamoyl)phenyl)-1-isopropyl-7-methyl-N-(4-(6-methylpyridazin-3-yl)benzyl)-4,5,6,7-tetrahydro-1H-pyrazolo[4,3-c]pyridine-3-carboxamide], the EC50 at STAT6 is 11 nM. Also, the IC50 in experiment [1] (setting [2]) came to 383 nM.

Take `Cc1nccc(-c2ccc(CNC(=O)c3nn(C(C)C)c4c3CN(c3ccc(C(=O)N(C)C)cc3)C[C@@H]4C)cc2)n1` [Example 728, (S)-5-(4-(dimethylcarbamoyl)phenyl)-1-isopropyl-7-methyl-N-(4-(2-methylpyrimidin-4-yl)benzyl)-4,5,6,7-tetrahydro-1H-pyrazolo[4,3-c]pyridine-3-carboxamide]: the EC50 on STAT6 came to 231 nM. This molecule also had an IC50 in experiment [1] (setting [2]) of 4210 nM.

Consider `Cc1csc(-c2ccc(CNC(=O)c3nn(C(C)C)c4c3CN(c3ccc(C(=O)N(C)C)cc3)C[C@@H]4C)cc2)n1` [Example 729, (S)-5-(4-(dimethylcarbamoyl)phenyl)-1-isopropyl-7-methyl-N-(4-(4-methylthiazol-2-yl)benzyl)-4,5,6,7-tetrahydro-1H-pyrazolo[4,3-c]pyridine-3-carboxamide], for which the EC50 on STAT6 is 683 nM. In addition, the IC50 in experiment [1] (setting [2]) is 4330 nM.

Take `Cc1ccnc(-c2ccc(CNC(=O)c3nn(C(C)C)c4c3CN(c3ccc(C(=O)N(C)C)cc3)C[C@@H]4C)cc2)n1` [Example 730, (S)-5-(4-(dimethylcarbamoyl)phenyl)-1-isopropyl-7-methyl-N-(4-(4-methylpyrimidin-2-yl)benzyl)-4,5,6,7-tetrahydro-1H-pyrazolo[4,3-c]pyridine-3-carboxamide]: the EC50 at STAT6 is > 10000 nM. In experiment [1] (setting [2]), the IC50 was > 15100 nM.

As for `COc1nc(-c2ccc(CNC(=O)c3nn(C(C)C)c4c3CN(c3ccc(C(=O)N(C)C)cc3)C[C@@H]4C)cc2)ncc1N` [Example 731, (S)-N-(4-(5-amino-4-methoxypyrimidin-2-yl)benzyl)-5-(4-(dimethylcarbamoyl)phenyl)-1-isopropyl-7-methyl-4,5,6,7-tetrahydro-1H-pyrazolo[4,3-c]pyridine-3-carboxamide], the EC50 at STAT6 came out at 82 nM. Besides, the IC50 in experiment [1] (setting [2]) stood at 1250 nM.

On to `CC(C)n1nc(C(=O)NCc2ccc(-c3cnn(C)c3)cc2)c2c1[C@@H](C)CN(c1ccc(C(=O)N(C)C)cc1)C2` [Example 732, (S)-5-(4-(dimethylcarbamoyl)phenyl)-1-isopropyl-7-methyl-N-(4-(1-methyl-1H-pyrazol-4-yl)benzyl)-4,5,6,7-tetrahydro-1H-pyrazolo[4,3-c]pyridine-3-carboxamide], for which, on STAT6, the EC50 is 88 nM. The IC50 in experiment [1] (setting [2]) worked out at 3070 nM.

Turning to “rel-(R or S)-5-(5-(dimethylcarbamoyl)pyridin-2-yl)-N-(4-(3,3-dimethylureido)benzyl)-1-methyl-7- [Example 390]”, the EC50 at STAT6 worked out at 39 nM. Moreover, in experiment [1] (IL-13 stimulated, 48 hours), the half-maximal inhibitory concentration (IC50) turned out to be 104 nM.
